The test system of experiment [1] is GCase. Nature of the experiment: Mouse model of Gaucher disease expressing mutations in the Gba gene. Particulars: in vivo, unpublished data. The source says:
(§1) In the absence of the “pharmacological chaperone,” the mutated enzyme protein misfolds in the ER (Ishii et al., Biochem. Biophys. Res. Comm. 1996; 220: 812-815), is retarded in its maturation to a final product, and is subsequently degraded by the ER-associated degradation mechanism. Homozygous mutant GCase is associated with the lysosomal storage disease Gaucher disease.

The next experiment relates to mutant GCase. The conditions noted are these: in vitro, fibroblasts from Gaucher patients; cited from earlier work.
The target in a further experiment is T1, human GCase (Homo sapiens, UniProt P04062).
T1 construct: human GCase in healthy volunteers; endogenous in cells
T1 sequence (P04062 40-536): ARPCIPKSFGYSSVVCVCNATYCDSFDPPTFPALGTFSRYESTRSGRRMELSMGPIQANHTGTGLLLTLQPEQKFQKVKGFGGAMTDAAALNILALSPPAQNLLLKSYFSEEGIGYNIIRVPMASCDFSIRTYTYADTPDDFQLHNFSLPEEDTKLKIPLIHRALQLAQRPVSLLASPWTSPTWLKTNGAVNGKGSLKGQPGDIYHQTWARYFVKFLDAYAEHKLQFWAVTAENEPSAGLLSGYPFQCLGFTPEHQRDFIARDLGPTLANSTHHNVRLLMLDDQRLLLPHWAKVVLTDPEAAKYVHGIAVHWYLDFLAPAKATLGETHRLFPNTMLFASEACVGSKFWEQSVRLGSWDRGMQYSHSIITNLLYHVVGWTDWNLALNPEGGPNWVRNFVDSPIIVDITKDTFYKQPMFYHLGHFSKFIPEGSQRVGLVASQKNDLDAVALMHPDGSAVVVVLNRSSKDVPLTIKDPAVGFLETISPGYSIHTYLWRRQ
Description: Phase 1 clinical trials, GCase activity in healthy volunteers. Format: in vivo.
Description: as §1

The test system of experiment [2] is GCase. Description: Phase 2 clinical trials, GCase activity in Gaucher patients expressing certain missense mutations. It is filed as in vivo, human. Particulars: Gaucher patients expressing certain missense mutations that create misfolded GCase.
Description: as §1

The structures appear in SMILES notation. Structures can show the parent of a compound that is named as a salt.

For `OC[C@H]1CNC[C@@H](O)[C@@H]1O` [IFG, (3R,4R,5R)-3,4-dihydroxy-5-hydroxymethyl-piperidine], in the experiment on GCase [1], the GCase activity result was “increases GCase activity” and the phenotype entry is “improves the phenotype”. Also, in the experiment with mutant GCase, the “activity of mutant GCase” value is recorded as “increase the activity of mutant GCase”.
For `OC[C@H]1CNC[C@@H](O)[C@@H]1O` [IFG tartrate], the “increase of the activity of human GCase” value on human GCase is “up to 3.5 fold”. In the experiment with GCase [2], the GCase activity result is reported as “increase in GCase activity”.

Source of the values: US9481700B2, “Method for preparing isofagomine and its derivatives” (Amicus Therapeutics, Inc., priority 2007, dated 2016).
